The test has as its target T1, human KEAP1 (N-term, residues 321-609) (Homo sapiens, UniProt Q14145).
T1 construct: human KEAP1 (N-term, residues 321-609)
The test can be described thus: KEAP1 Kelch Fluorescence Polarization (FP) Assay. Conditions: inhibition of Kelch domain-NRF2 interaction; 2 nM FITC-labelled NRF2 peptide, 25 nM KEAP1, 1 h room temperature; compounds below 10 nM cannot be differentiated. It is filed as binding. The procedure: KEAP1 Kelch Fluorescence Polarization (FP) Assay Method
Inhibition of the Kelch domain-NRF2 interaction was determined using a fluorescence polarization-based competition assay in a black 384-well microplate. Compounds were tested at a starting concentration of 10 μM serially diluted 1:3 to generate a 12-point dose response curve on the Biomek FX robot. Each well contained 2 nM FITC-labelled NRF2 peptide (FITC-LDEETGEFL-NH2) and 25 nM human KEAP1 (N-term, residues 321-609) enzyme in a final volume of 20 μL of assay buffer (50 mM Tris-HCl pH 8.0, 100 mM NaCl, 5 mM MgCl2, 0.005% Tween-20, 0.005% BSA, 0.5% DMSO) in the presence of varying concentrations of test compound. Unlabelled peptide (LDEETGEFL-NH2) at 50 μM (negative control) and 0.5% DMSO (positive control) was used to determine the assay window.
After 1 h at room temperature, fluorescence polarization (excitation 470 nm/emission 530 nm) was measured using an Envision plate reader. IC50 values were determined by fitting the data to a four parameter logistic fit using XLfit or XE Runner within ActivityBase. The assay limit is such that compounds below 10 nM cannot be differentiated.
For orientation: Polarisation of emitted light reports the rotation of a fluorescent probe.
T1 sequence (Q14145 321-609): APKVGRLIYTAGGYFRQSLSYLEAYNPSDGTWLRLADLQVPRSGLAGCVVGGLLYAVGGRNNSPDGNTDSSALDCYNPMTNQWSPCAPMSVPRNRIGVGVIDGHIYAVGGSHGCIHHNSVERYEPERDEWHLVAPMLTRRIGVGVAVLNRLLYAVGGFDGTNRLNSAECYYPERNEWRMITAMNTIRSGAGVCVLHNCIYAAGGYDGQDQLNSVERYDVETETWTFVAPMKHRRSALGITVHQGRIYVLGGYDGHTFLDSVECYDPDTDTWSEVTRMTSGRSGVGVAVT
With `CNC(=O)[C@H]1CCCC[C@H]1C(=O)N1CCc2cccc(O[C@H]3CCN(C(=O)c4cccnc4)C3)c2[C@H]1CN1C(=O)c2ccccc2C1=O` [Example 15, (1S,2R)-2-((S)-1-((1,3-dioxoisoindolin-2-yl)methyl)-8-(((S)-1-nicotinoylpyrrolidin-3-yl)oxy)-1,2,3,4-tetrahydroisoquinoline-2-carbonyl)-N-methylcyclohexane-1-carboxamide], it took 93 nM to reach half-maximal inhibition (IC50).

As for `CNC(=O)[C@H]1CCCC[C@H]1C(=O)N1CCc2cccc(OCCCC(=O)O)c2[C@H]1CN1C(=O)c2ccccc2C1=O` [Example 46, 4-(((S)-1-((1,3-dioxoisoindolin-2-yl)methyl)-24(1 R,2S)-2-(methylcarbamoyncyclohexane-1-carbonyl)-1,2,3,4-tetrahydroisoquinolin-8-yl)oxy)butanoic acid], the IC50 (commonly the concentration that gives 50% inhibition) was found to be 83 nM.

In turn, `CNC(=O)[C@H]1CCCC[C@H]1C(=O)N1CCc2cccc(OCCNC(=O)c3noc(C)c3C)c2[C@H]1CN1C(=O)c2ccccc2C1=O` [Example 4, N-(2-(((S)-1-((1,3-dioxoisoindolin-2-yl)methyl)-2-((1R,2S)-2-(methylcarbamoyl)cyclo-hexane-1-carbonyl)-1,2,3,4-tetrahydroisoquinolin-8-yl)oxy)ethyl)-4,5-dimethylisoxazole-3-carboxamide] yielded an IC50 of 161 nM.

`Cc1cc(C(=O)NCCOc2cccc3c2[C@@H](CN2C(=O)c4ccccc4C2=O)N(C(=O)[C@@H]2CCCC[C@@H]2C(=O)NC2CC2)CC3)no1` [Example 7, N-(2-(((S)-2-((1R,2S)-2-(cyclopropylcarbamoyl)cyclohexane-1-carbonyl)-1-((1,3-dioxoisoindolin-2-yl)methyl)-1,2,3,4-tetrahydroisoquinolin-8-yl)oxy)ethyl)-5-methylisoxazole-3-carboxamide] showed an IC50 of 196 nM.

For the compound `CNC(=O)[C@H]1CCCC[C@H]1C(=O)N1CCc2cccc(O[C@H]3CCN(C(=O)c4cncnc4)C3)c2[C@H]1CN1C(=O)c2ccccc2C1=O` [Example 14, (1S,2R)-2-((S)-1-((1,3-dioxoisoindolin-2-yl)methyl)-8-(((S)-1-(pyrimidine-5-carbonyl)pyrrolidin-3-yl)oxy)-1,2,3,4-tetrahydroisoquinoline-2-carbonyl)-N-methylcyclohexane-1-carboxamide], the IC50 came out at 183 nM.

The compound `CNC(=O)C[C@@H](C)C(=O)N1CCc2cccc(O[C@H]3CCN(C(=O)c4cncs4)C3)c2[C@H]1CN1C(=O)c2ccccc2C1=O` [Example 25, (R)-4-((S)-1-((1,3-dioxoisoindolin-2-yl)methyl)-8-(((S)-1-(thiazole-5-carbonyl)pyrrolidin-3-yl)oxy)-3,4-dihydroisoquinolin-2(1H)-yl)-N,3-dimethyl-4-oxobutanamide] gave an IC50 of 292 nM.

`CNC(=O)[C@H]1CCCC[C@H]1C(=O)N1CCc2cccc(OCCNC(=O)c3nccs3)c2[C@H]1CN1C(=O)c2ccccc2C1=O` [Example 18, N-(2-(((S)-1-((1,3-dioxoisoindolin-2-yl)methyl)-2-((1R,2S)-2-(methylcarbamoyl)cyclo-hexane-1-carbonyl)-1,2,3,4-tetrahydroisoquinolin-8-yl)oxy)ethyl)thiazole-2-carboxamide] displayed an IC50 of 119 nM.

Compound `CNC(=O)[C@H]1CCCC[C@H]1C(=O)N1CCc2cccc(O[C@H]3CCN(C(=O)c4cncs4)C3)c2[C@H]1CNC(=O)C1CC1` [Example 38, (1S,2R)-2-((S)-1-(cyclopropanecarboxamidomethyl)-8-(((S)-1-(thiazole-5-carbonyl)pyrrolidin-3-yl)oxy)-1,2,3,4-tetrahydroisoquinoline-2-carbonyl)-N-methylcyclohexane-1-carboxamide] yielded an IC50 of 8200 nM.

The compound `O=C(NCC(F)(F)F)[C@H]1CCCC[C@H]1C(=O)N1CCc2cccc(O[C@H]3CCN(C(=O)c4cncs4)C3)c2[C@H]1CN1C(=O)c2ccccc2C1=O` [Example 32, (1S,2R)-2-((S)-1-((1,3-dioxoisoindolin-2-yl)methyl)-8-(((S)-1-(thiazole-5-carbonyl)pyrrolidin-3-yl)oxy)-1,2,3,4-tetrahydroisoquinoline-2-carbonyl)-N-(2,2,2-trifluoroethyl)cyclohexane-1-carboxamide] gave an IC50 of 2100 nM.

As for `CNC(=O)N[C@@H](C)C(=O)N1CCc2cccc(O[C@H]3CCN(C(=O)c4cncs4)C3)c2[C@H]1CN1C(=O)c2ccccc2C1=O` [Example 36, 1-((S)-1-((S)-1-((1,3-dioxoisoindolin-2-yl)methyl)-8-(((S)-1-(thiazole-5-carbonyl)pyrrolidin-3-yl)oxy)-3,4-dihydroisoquinolin-2(1H)-yl)-1-oxopropan-2-yl)-3-methylurea], it took 126 nM to reach half-maximal inhibition (IC50). Against the preceding compound, the IC50 is about 17-fold lower.

Compound `O=C(NCCO)[C@H]1CCCC[C@H]1C(=O)N1CCc2cccc(O[C@H]3CCN(C(=O)c4cncs4)C3)c2[C@H]1CN1C(=O)c2ccccc2C1=O` [Example 35, (1S,2R)-2-((S)-1-((1,3-dioxoisoindolin-2-yl)methyl)-8-(((S)-1-(thiazole-5-carbonyl)pyrrolidin-3-yl)oxy)-1,2,3,4-tetrahydroisoquinoline-2-carbonyl)-N-(2-hydroxyethyl)cyclohexane-1-carboxamide] showed an IC50 of 185 nM. This IC50 and that of the compound before are within 1.5-fold of each other.

Compound `CNC(=O)[C@H]1CCCC[C@H]1C(=O)N1CCc2c(Br)ccc(O[C@H]3CCN(C(C)=O)C3)c2[C@H]1CN1C(=O)c2ccccc2C1=O` [Example 50, (1S,2R)-2-((S)-8-(((S)-1-acetylpyrrolidin-3-yl)oxy)-5-bromo-1-((1,3-dioxoisoindolin-2-yl)methyl)-1,2,3,4-tetrahydroisoquinoline-2-carbonyl)-N-methylcyclohexane-1-carboxamide] displayed an IC50 of 72 nM.

In turn, `Cc1cc(C(=O)NCCOc2cccc3c2[C@@H](CN2C(=O)c4ccccc4C2=O)N(C(=O)[C@@H]2CCCC[C@@H]2C(=O)NC2CCC2)CC3)no1` [Example 9, N-(2-(((S)-2-((1R,2S)-2-(cyclobutylcarbamoyl)cyclo-hexane-1-carbonyl)-1-((1,3-dioxoisoindolin-2-yl)methyl)-1,2,3,4-tetrahydroisoquinolin-8-yl)oxy)ethyl)-5-methylisoxazole-3-carboxamide] had an IC50 of 119 nM. This IC50 lies about 1.7-fold higher than the previous one.

Consider `CNC(=O)[C@H]1CCCC[C@H]1C(=O)N1CCc2cccc(O[C@H]3CCN(C(=O)c4cncs4)C3)c2[C@H]1CN1CCCC1=O` [Example 26, (1S,2R)-N-methyl-2-((S)-1-((2-oxopyrrolidin-1-yl)methyl)-8-(((S)-1-(thiazole-5-carbonyl)pyrrolidin-3-yl)oxy)-1,2,3,4-tetrahydroisoquinoline-2-carbonyl)cyclohexane-1-carboxamide], for which the IC50 was 61 nM.

Regarding `CCC(=O)NC[C@@H]1c2c(cccc2O[C@H]2CCN(C(=O)c3cncs3)C2)CCN1C(=O)[C@@H]1CCCC[C@@H]1C(=O)NC` [Example 47, (1S,2R)-N-methyl-2-((S)-1-(propionamidomethyl)-8-(((S)-1-(thiazole-5-carbonyl)pyrrolidin-3-yl)oxy)-1,2,3,4-tetrahydroisoquinoline-2-carbonyl)cyclohexane-1-carboxamide], the IC50 amounted to 5330 nM.

Consider `CNC(=O)[C@H]1CCCC[C@H]1C(=O)N1CCc2cccc(OCCNS(=O)(=O)c3cnoc3C)c2[C@H]1CN1C(=O)c2ccccc2C1=O` [Example 13, (1S,2R)-2-((S)-1-((1,3-dioxoisoindolin-2-yl)methyl)-8-(2-((5-methylisoxazole)-4-sulfonamido)ethoxy)-1,2,3,4-tetrahydroisoquinoline-2-carbonyl)-N-methylcyclohexane-1-carboxamide], for which 169 nM corresponded to half-maximal inhibition (IC50).

As to `CNC(=O)[C@H]1CCCC[C@H]1C(=O)N1CCc2cccc(O[C@H]3CCN(C(=O)c4sc(C)nc4C)C3)c2[C@H]1CN1C(=O)c2ccccc2C1=O` [Example 23, (1S,2R)-2-((S)-8-(((S)-1-(2,4-dimethylthiazole-5-carbonyl)pyrrolidin-3-yl)oxy)-1-((1,3-dioxoisoindolin-2-yl)methyl)-1,2,3,4-tetrahydroisoquinoline-2-carbonyl)-N-methylcyclohexane-1-carboxamide], the IC50 turned out to be 606 nM.

`CNC(=O)[C@H]1CCCC[C@H]1C(=O)N1CCc2cccc(OCc3cnn(C)c3)c2[C@H]1CN1C(=O)c2ccccc2C1=O` [Example 49, (1S,2R)-2-((S)-1-((1,3-dioxoisoindolin-2-yl)methyl)-8-((1-methyl-1H-pyrazol-4-yl)methoxy)-1,2,3,4-tetrahydroisoquinoline-2-carbonyl)-N-methylcyclohexane-1-carboxamide]: half-maximal inhibition (IC50) was put at 1800 nM. Against the preceding compound, the IC50 is about 3-fold higher.

In turn, `CNC(=O)[C@H]1CCCC[C@H]1C(=O)N1CCc2cccc(OCCNC(=O)c3noc4ccccc34)c2[C@H]1CN1C(=O)c2ccccc2C1=O` [Example 12, N-(2-(((S)-1-((1,3-dioxoisoindolin-2-yl)methyl)-2-((1R,2S)-2-(methylcarbamoyl)cyclo-hexane-1-carbonyl)-1,2,3,4-tetrahydroisoquinolin-8-yl)oxy)ethyl)benzo[d] isoxazole-3-carboxamide] came in with a half-maximal inhibitory concentration (IC50) of 56 nM.

`CNC(=O)[C@H]1CCCC[C@H]1C(=O)N1CCc2cccc(O[C@H]3CCN(C(=O)C4CC4)C3)c2[C@H]1CN1C(=O)c2ccccc2C1=O` [Example 19, (1S,2R)-2-((S)-8-(((S)-1-(cyclopropanecarbonyl)pyrrolidin-3-yl)oxy)-1-((1,3-dioxoisoindolin-2-yl)methyl)-1,2,3,4-tetrahydroisoquinoline-2-carbonyl)-N-methylcyclohexane-1-carboxamide] showed an IC50 of 196 nM.

The values above are taken from patent US20230159511A1, “TETRAHYDROISOQUINOLINE COMPOUNDS AS NRF2 ACTIVATORS” (C4X Discovery Limited, priority 2020, published 2023).
